tested on: Jurkat; assay: MTS proliferation assay, Jurkat; format: cell-based, human; conditions: 72 h incubation, read-out: MTS proliferation assay IC 50 Jurkat
Summary of the method: (§1)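 Cells were seeded 24 h before treatment and exposed to compound at 10, 3, 1 and 0.3 μM final for 72 h at 37 °C, 7.5% CO2 in RPMI-1640 with 5% or 10% FCS. Viability was read by MTS reagent (3 h) as absorbance at 492 nm.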

| SMILES | IC50 [nM] |
| --- | --- |
| Nc1nonc1-c1nc2ccccc2n1CC(=O)c1ccc2c(c1)OCO2 [Example 45] | 10 to 100 |
| Nc1ccc(C(=O)Cn2c(-c3nonc3N)nc3ccccc32)cc1.O=C(O)C(=O)O [Example 62] | 10 to 100 |

tested on: Jily; assay: MTS proliferation assay, Jily; format: cell-based; conditions: 72 h incubation, read-out: MTS proliferation assay IC 50 Jily
Summary of the method: (§2)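 Cells in RPMI-1640 with 5% or 10% FCS, 2-mercaptoethanol and glutamine were seeded 24 h before treatment with compound at final 10, 3, 1 and 0.3 μM. After 72 h at 37° C and 7.5% CO2, MTS reagent was added for 3 h and absorbance read at 492 nm.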

| SMILES | IC50 [nM] |
| --- | --- |
| Nc1nonc1-c1nc2ccccc2n1CC(=O)c1ccc2c(c1)OCO2 [Example 45] | 10 to 100 |
| Nc1ccc(C(=O)Cn2c(-c3nonc3N)nc3ccccc32)cc1.O=C(O)C(=O)O [Example 62] | 10 to 100 |

tested on: HT1080; assay: MTS proliferation assay, HT1080; format: cell-based, human; conditions: HT1080, 72 h incubation; read-out: MTS proliferation assay IC 50 HT1080
Summary of the method: as §1

| SMILES | IC50 [nM] |
| --- | --- |
| Nc1nonc1-c1nc2ccccc2n1CC(=O)c1ccc2c(c1)OCO2 [Example 45] | 10 to 100 |
| Nc1ccc(C(=O)Cn2c(-c3nonc3N)nc3ccccc32)cc1.O=C(O)C(=O)O [Example 62] | 10 to 100 |

tested on: HeLa; assay: MTS proliferation assay, HeLa; format: cell-based, human; conditions: 72 h incubation, read-out: MTS proliferation assay IC 50 HeLa
Summary of the method: as §1

| SMILES | IC50 [nM] |
| --- | --- |
| Nc1nonc1-c1nc2ccccc2n1CC(=O)c1ccc2c(c1)OCO2 [Example 45] | 10 to 100 |
| Nc1ccc(C(=O)Cn2c(-c3nonc3N)nc3ccccc32)cc1.O=C(O)C(=O)O [Example 62] | 100 to 1000 |

tested on: MRC5; assay: MTS proliferation assay, MRC5; format: cell-based; conditions: MRC5, 72 h incubation; read-out: MTS proliferation assay IC 50 MRC5
Summary of the method: as §2

| SMILES | IC50 [nM] |
| --- | --- |
| Nc1nonc1-c1nc2ccccc2n1CC(=O)c1ccc2c(c1)OCO2 [Example 45] | 100 to 1000 |
| Nc1ccc(C(=O)Cn2c(-c3nonc3N)nc3ccccc32)cc1.O=C(O)C(=O)O [Example 62] | 10 to 100 |

tested on: adherent cells or suspension cells; assay: Hoechst 33342 nuclear staining (fraction of apoptotic nuclei); format: cell-based; set-up: key: 0 relating to no activity; 1 relating to weak activity comprising less than 70% of the cells; score 2 relating to strong activity comprising more than 70% of the cells; conditions: H460, conc 0.01 μm

| SMILES | Hoechst 33342 nuclear staining score |
| --- | --- |
| Nc1nonc1-c1nc2ccccc2n1CC(=O)c1ccc2c(c1)OCO2 [Example 45] | 0 |
| Nc1ccc(C(=O)Cn2c(-c3nonc3N)nc3ccccc32)cc1.O=C(O)C(=O)O [Example 62] | 0 |

same assay, conditions: H460, conc 0.1 μm

| SMILES | Hoechst 33342 nuclear staining score |
| --- | --- |
| Nc1nonc1-c1nc2ccccc2n1CC(=O)c1ccc2c(c1)OCO2 [Example 45] | 2 (score 2 relating to strong activity comprising more than 70% of the cells) |
| Nc1ccc(C(=O)Cn2c(-c3nonc3N)nc3ccccc32)cc1.O=C(O)C(=O)O [Example 62] | 2 (score 2 relating to strong activity comprising more than 70% of the cells) |

same assay, conditions: H460, conc 1 μm

| SMILES | Hoechst 33342 nuclear staining score |
| --- | --- |
| Nc1nonc1-c1nc2ccccc2n1CC(=O)c1ccc2c(c1)OCO2 [Example 45] | 2 (score 2 relating to strong activity comprising more than 70% of the cells) |
| Nc1ccc(C(=O)Cn2c(-c3nonc3N)nc3ccccc32)cc1.O=C(O)C(=O)O [Example 62] | 2 (score 2 relating to strong activity comprising more than 70% of the cells) |

same assay, conditions: HeLa, conc 0.01 μm

| SMILES | Hoechst 33342 nuclear staining score |
| --- | --- |
| Nc1nonc1-c1nc2ccccc2n1CC(=O)c1ccc2c(c1)OCO2 [Example 45] | 0 |
| Nc1ccc(C(=O)Cn2c(-c3nonc3N)nc3ccccc32)cc1.O=C(O)C(=O)O [Example 62] | 0 |

same assay, conditions: HeLa, conc 0.1 μm

| SMILES | Hoechst 33342 nuclear staining score |
| --- | --- |
| Nc1nonc1-c1nc2ccccc2n1CC(=O)c1ccc2c(c1)OCO2 [Example 45] | 1 (1 relating to weak activity comprising less than 70% of the cells) |
| Nc1ccc(C(=O)Cn2c(-c3nonc3N)nc3ccccc32)cc1.O=C(O)C(=O)O [Example 62] | 2 (score 2 relating to strong activity comprising more than 70% of the cells) |

same assay, conditions: HeLa, conc 1 μm

| SMILES | Hoechst 33342 nuclear staining score |
| --- | --- |
| Nc1nonc1-c1nc2ccccc2n1CC(=O)c1ccc2c(c1)OCO2 [Example 45] | 2 (score 2 relating to strong activity comprising more than 70% of the cells) |
| Nc1ccc(C(=O)Cn2c(-c3nonc3N)nc3ccccc32)cc1.O=C(O)C(=O)O [Example 62] | 2 (score 2 relating to strong activity comprising more than 70% of the cells) |

same assay, conditions: Jily, conc 0.01 μm

| SMILES | Hoechst 33342 nuclear staining score |
| --- | --- |
| Nc1nonc1-c1nc2ccccc2n1CC(=O)c1ccc2c(c1)OCO2 [Example 45] | 0 |
| Nc1ccc(C(=O)Cn2c(-c3nonc3N)nc3ccccc32)cc1.O=C(O)C(=O)O [Example 62] | 0 |

same assay, conditions: Jily, conc 0.1 μm

| SMILES | Hoechst 33342 nuclear staining score |
| --- | --- |
| Nc1nonc1-c1nc2ccccc2n1CC(=O)c1ccc2c(c1)OCO2 [Example 45] | 2 (score 2 relating to strong activity comprising more than 70% of the cells) |
| Nc1ccc(C(=O)Cn2c(-c3nonc3N)nc3ccccc32)cc1.O=C(O)C(=O)O [Example 62] | 2 (score 2 relating to strong activity comprising more than 70% of the cells) |

same assay, conditions: Jily, conc 1 μm

| SMILES | Hoechst 33342 nuclear staining score |
| --- | --- |
| Nc1nonc1-c1nc2ccccc2n1CC(=O)c1ccc2c(c1)OCO2 [Example 45] | 2 (score 2 relating to strong activity comprising more than 70% of the cells) |
| Nc1ccc(C(=O)Cn2c(-c3nonc3N)nc3ccccc32)cc1.O=C(O)C(=O)O [Example 62] | 2 (score 2 relating to strong activity comprising more than 70% of the cells) |

same assay, conditions: Jurkat, conc 0.01 μm

| SMILES | Hoechst 33342 nuclear staining score |
| --- | --- |
| Nc1nonc1-c1nc2ccccc2n1CC(=O)c1ccc2c(c1)OCO2 [Example 45] | 0 |
| Nc1ccc(C(=O)Cn2c(-c3nonc3N)nc3ccccc32)cc1.O=C(O)C(=O)O [Example 62] | 0 |

same assay, conditions: Jurkat, conc 0.1 μm

| SMILES | Hoechst 33342 nuclear staining score |
| --- | --- |
| Nc1nonc1-c1nc2ccccc2n1CC(=O)c1ccc2c(c1)OCO2 [Example 45] | 2 (score 2 relating to strong activity comprising more than 70% of the cells) |
| Nc1ccc(C(=O)Cn2c(-c3nonc3N)nc3ccccc32)cc1.O=C(O)C(=O)O [Example 62] | 2 (score 2 relating to strong activity comprising more than 70% of the cells) |

same assay, conditions: Jurkat, conc 1 μm

| SMILES | Hoechst 33342 nuclear staining score |
| --- | --- |
| Nc1nonc1-c1nc2ccccc2n1CC(=O)c1ccc2c(c1)OCO2 [Example 45] | 2 (score 2 relating to strong activity comprising more than 70% of the cells) |
| Nc1ccc(C(=O)Cn2c(-c3nonc3N)nc3ccccc32)cc1.O=C(O)C(=O)O [Example 62] | 2 (score 2 relating to strong activity comprising more than 70% of the cells) |

same assay, conditions: MRC5, conc 0.01 μm

| SMILES | Hoechst 33342 nuclear staining score |
| --- | --- |
| Nc1nonc1-c1nc2ccccc2n1CC(=O)c1ccc2c(c1)OCO2 [Example 45] | 0 |
| Nc1ccc(C(=O)Cn2c(-c3nonc3N)nc3ccccc32)cc1.O=C(O)C(=O)O [Example 62] | 0 |

same assay, conditions: MRC5, conc 0.1 μm

| SMILES | Hoechst 33342 nuclear staining score |
| --- | --- |
| Nc1nonc1-c1nc2ccccc2n1CC(=O)c1ccc2c(c1)OCO2 [Example 45] | 0 |
| Nc1ccc(C(=O)Cn2c(-c3nonc3N)nc3ccccc32)cc1.O=C(O)C(=O)O [Example 62] | 2 (score 2 relating to strong activity comprising more than 70% of the cells) |

same assay, conditions: MRC5, conc 1 μm

| SMILES | Hoechst 33342 nuclear staining score |
| --- | --- |
| Nc1nonc1-c1nc2ccccc2n1CC(=O)c1ccc2c(c1)OCO2 [Example 45] | 2 (score 2 relating to strong activity comprising more than 70% of the cells) |
| Nc1ccc(C(=O)Cn2c(-c3nonc3N)nc3ccccc32)cc1.O=C(O)C(=O)O [Example 62] | 2 (score 2 relating to strong activity comprising more than 70% of the cells) |

same assay, conditions: PBLs, conc 0.01 μm

| SMILES | Hoechst 33342 nuclear staining score |
| --- | --- |
| Nc1nonc1-c1nc2ccccc2n1CC(=O)c1ccc2c(c1)OCO2 [Example 45] | 0 |
| Nc1ccc(C(=O)Cn2c(-c3nonc3N)nc3ccccc32)cc1.O=C(O)C(=O)O [Example 62] | 0 |

same assay, conditions: PBLs, conc 0.1 μm

| SMILES | Hoechst 33342 nuclear staining score |
| --- | --- |
| Nc1nonc1-c1nc2ccccc2n1CC(=O)c1ccc2c(c1)OCO2 [Example 45] | 0 |
| Nc1ccc(C(=O)Cn2c(-c3nonc3N)nc3ccccc32)cc1.O=C(O)C(=O)O [Example 62] | 0 |

same assay, conditions: PBLs, conc 1 μm

| SMILES | Hoechst 33342 nuclear staining score |
| --- | --- |
| Nc1nonc1-c1nc2ccccc2n1CC(=O)c1ccc2c(c1)OCO2 [Example 45] | 0 |
| Nc1ccc(C(=O)Cn2c(-c3nonc3N)nc3ccccc32)cc1.O=C(O)C(=O)O [Example 62] | 0 |

Source: patent USRE42890E1, “Furazanobenzimidazoles” (Basilea Pharmaceutica AG, priority 2003, dated 2011)
